Legend:
NA transporter = assay: Inhibition of noradrenalin uptake in synaptosomes; assay type: biochemical
[1] = test system: batrachotoxin (BTX) binding site of the sodium channel; assay: Affinity to the batrachotoxin (BTX) binding site of the sodium channel; details: rat cerebrocortex synaptosomes, [3H]-batrachotoxinin A20 α-benzoate 10 nM; test concentration not given
5-HT transporter = target: T1, 5-HT transporter (Rattus norvegicus, UniProt P31652); assay: Inhibition of 5-HT uptake in synaptosomes; assay type: biochemical; details: for inhibition at 1 µM: read-out: Uptake_5-HT, rat, 1 μM, % inhibition
T1 construct: from tissue; host or cells: rat brain synaptosomes (marrow/medulla and pons), P2 fraction
T1 sequence (P31652 whole entry): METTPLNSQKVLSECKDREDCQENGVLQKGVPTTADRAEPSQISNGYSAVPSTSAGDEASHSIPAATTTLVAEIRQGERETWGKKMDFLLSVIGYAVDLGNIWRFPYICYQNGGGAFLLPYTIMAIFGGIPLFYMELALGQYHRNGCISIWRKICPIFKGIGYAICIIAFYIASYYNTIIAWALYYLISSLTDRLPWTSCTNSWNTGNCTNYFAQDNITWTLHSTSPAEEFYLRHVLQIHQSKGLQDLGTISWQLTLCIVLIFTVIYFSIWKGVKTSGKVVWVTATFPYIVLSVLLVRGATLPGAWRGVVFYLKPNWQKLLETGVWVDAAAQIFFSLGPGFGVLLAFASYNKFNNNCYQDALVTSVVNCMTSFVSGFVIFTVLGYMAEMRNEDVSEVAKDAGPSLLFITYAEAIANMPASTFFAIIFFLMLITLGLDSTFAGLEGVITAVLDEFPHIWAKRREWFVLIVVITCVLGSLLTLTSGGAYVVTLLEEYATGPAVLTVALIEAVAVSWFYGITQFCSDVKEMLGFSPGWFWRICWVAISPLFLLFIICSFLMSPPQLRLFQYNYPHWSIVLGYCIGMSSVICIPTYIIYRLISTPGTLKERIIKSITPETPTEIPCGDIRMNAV

| Compound | Uptake (NA), rat, 10 μM, % inhibition (NA transporter) | BTX Inhibition [1] | Uptake_5-HT, rat, 1 μM, % inhibition (5-HT transporter) | inhibition at 1 µM (5-HT transporter) |
| --- | --- | --- | --- | --- |
| CN(C)S(=O)(=O)N1CCC2(CC1)NCC(=O)N2Cc1ccccc1 [Example 9, 1-Benzyl-2-oxo-1,4,8-triazaspiro[4,5]decan-8-sulfonic acid dimethylamide] | 40% |  |  |  |
| CSCCC1NC2(CCN(C(=S)Nc3cc(F)ccc3F)CC2)N(Cc2ccccc2)C1=O (centres unmarked) [Example 140, 1-Benzyl-3-(2-methylsulfanylethyl)-2-oxo-1,4,8-triazaspiro[4,5]decan-8-thiocarboxylic acid (2,5-difluorobenzol)amide] |  | 53 | 59% |  |
| CCCCN1C(=O)C(C(C)C)NC12CCN(C(=S)Nc1ccccc1C(=O)OC)CC2 (centres unmarked) [Example 143, Methyl 2-[(1-butyl-3-isopropyl-2-oxo-1,4,8-triazaspiro[4,5]decan-8-carbothioyl)amino]-benzoate] |  | 51 |  | 32% |
| CCOC(=O)CN1C(=O)C(Cc2ccccc2)NC12CCN(C(=S)Nc1ccccc1C(=O)OC)CC2 (centres unmarked) [Example 145, Methyl 2-[(3-benzyl-1-ethoxycarbonylmethyl-2-oxo-1,4,8-triazaspiro[4,5]decan-8-carbothioyl)amino]-benzoate] |  | 69 |  | 67% |
| CCOC(=O)NC(=S)N1CCC2(CC1)NC(CCSC)C(=O)N2Cc1ccccc1C#N (centres unmarked) [Example 146, Ethyl[1-(2-cyanobenzyl)-3-(2-methylsulfanylethyl)-2-oxo-1,4,8-triazaspiro[4,5]decan-8-carbothioyl]-carbamate] |  | 30 |  | 30% |
| CSCCC1NC2(CCN(C(=S)NC(C)c3ccccc3)CC2)N(Cc2ccc3ccccc3c2)C1=O (centres unmarked) [Example 148, 3-(2-Methylsulfanylethyl)-1-naphthalin-2-ylmethyl-2-oxo-1,4,8-triazaspiro[4,5]decan-8-thiocarboxylic acid (1-benzol-ethyl)amide] |  | 88 | 49% |  |
| CC(C)C1NC2(CCN(C(=S)Nc3cc(Cl)cc(Cl)c3)CC2)N(Cc2ccccc2)C1=O (centres unmarked) [Example 177, 1-Benzyl-3-isopropyl-2-oxo-1,4,8-triazaspiro[4,5]decan-8-thiocarboxylic acid (3,5-dichlorobenzol)amide] |  | 46 | 36% |  |
| CSCCC1NC2(CCN(C(=S)Nc3ccccc3C)CC2)N(Cc2ccc(F)cc2)C1=O (centres unmarked) [Example 186, 1-(4-Fluorobenzyl)-3-(2-methylsulfanylethyl)-2-oxo-1,4,8-triazaspiro[4,5]decan-8-thiocarboxylic acid o-tolylamide] |  | 52 |  | 55% |
| CSCCC1NC2(CCN(C(=S)Nc3cccc(C#N)c3)CC2)N(Cc2ccc(F)cc2)C1=O (centres unmarked) [Example 192, 1-(4-Fluorobenzyl)-3-(2-methylsulfanylethyl)-2-oxo-1,4,8-triazaspiro[4,5]decan-8-thiocarboxylic acid (3-cyanobenzol)amide] |  | 35 | 38% |  |
| CCOc1ccc(NC(=S)N2CCC3(CC2)NC(CCSC)C(=O)N3Cc2ccc(F)cc2)cc1 (centres unmarked) [Example 200, 1-(4-Fluorobenzyl)-3-(2-methylsulfanylethyl)-2-oxo-1,4,8-triazaspiro[4,5]decan-8-thiocarboxylic acid (4-ethoxy-benzol)amide] |  | 30 | 30% |  |
| CC(=O)c1cccc(NC(=S)N2CCC3(CC2)NC(Cc2ccccc2)C(=O)N3Cc2ccccc2F)c1 (centres unmarked) [Example 201, 3-Benzyl-1-(2-fluorobenzyl)-2-oxo-1,4,8-triazaspiro[4,5]decan-8-thiocarboxylic acid (3-acetylbenzol)amide] |  | 63 | 54% |  |
| CN1C(=O)C(Cc2ccccc2)NC12CCN(C(=O)NC1CCCCC1)CC2 (centres unmarked) [Example 202, 3-Benzyl-1-methyl-2-oxo-1,4,8-triazaspiro[4,5]decan-8-carboxylic acid cyclohexylamide] |  | 56 |  | 34% |
| CCCCN1C(=O)C(CCSC)NC12CCN(C(=O)Nc1ccccc1)CC2 (centres unmarked) [Example 207, 1-Butyl-3-(2-methylsulfanylethyl)-2-oxo-1,4,8-triazaspiro[4,5]decan-8-carboxylic acid benzolamide] |  | 35 | 39% |  |
| CCCCN1C(=O)C(CCSC)NC12CCN(C(=O)Nc1ccc(OCC)cc1)CC2 (centres unmarked) [Example 221, 1-Butyl-3-(2-methylsulfanylethyl)-2-oxo-1,4,8-triazaspiro[4,5]decan-8-carboxylic acid (4-ethoxy-benzol)amide] |  | 44 | 47% |  |
| CCCCN1C(=O)C(CCSC)NC12CCN(C(=O)Nc1ccc(Cl)c(C(F)(F)F)c1)CC2 (centres unmarked) [Example 227, 1-Butyl-3-(2-methylsulfanylethyl)-2-oxo-1,4,8-triazaspiro[4,5]decan-8-carboxylic acid (4-chloro-3-trifluoromethylbenzol)amide] |  | 85 | 58% |  |
| O=C(Nc1cc(F)ccc1F)N1CCC2(CC1)NC(Cc1ccccc1)C(=O)N2Cc1ccccc1F (centres unmarked) [Example 230, 3-Benzyl-1-(2-fluorobenzyl)-2-oxo-1,4,8-triazaspiro[4,5]decan-8-carboxylic acid (2,5-difluorobenzol)amide] |  | 78 | 63% |  |
| O=C(NCc1ccc(Cl)c(Cl)c1)N1CCC2(CC1)NC(Cc1ccccc1)C(=O)N2Cc1ccccc1F (centres unmarked) [Example 233, 3-Benzyl-1-(2-fluorobenzyl)-2-oxo-1,4,8-triazaspiro[4,5]decan-8-carboxylic acid 3,4-dichlorobenzylamide] |  | 85 |  | 44% |
| CSCCC1NC2(CCN(C(=O)Nc3cccc(C(C)=O)c3)CC2)N(Cc2ccccc2C#N)C1=O (centres unmarked) [Example 234, 1-(2-Cyanobenzyl)-3-(2-methylsulfanylethyl)-2-oxo-1,4,8-triazaspiro[4,5]decan-8-carboxylic acid (3-acetylbenzol)amide] |  | 31 | 45% |  |
| CCOC(=O)c1ccc(NC(=O)N2CCC3(CC2)NC(Cc2ccccc2)C(=O)N3Cc2ccccc2F)cc1 (centres unmarked) [Example 235, Ethyl 4-{[3-benzyl-1-(2-fluorobenzyl)-2-oxo-1,4,8-triazaspiro[4,5]decan-8-carbonyl]-amino}-benzoate] |  | 77 |  | 65% |
| CSCCC1NC2(CCN(C(=O)Nc3ccc(OC(F)(F)F)cc3)CC2)N(Cc2ccc(F)cc2)C1=O (centres unmarked) [Example 237, 1-(4-Fluorobenzyl)-3-(2-methylsulfanylethyl)-2-oxo-1,4,8-triazaspiro[4,5]decan-8-carboxylic acid (4-trifluoromethoxy-benzol)amide] |  | 87 | 39% |  |
| O=C(NC1CCCCC1)N1CCC2(CC1)NC(Cc1ccccc1)C(=O)N2Cc1ccccc1F (centres unmarked) [Example 238, 3-Benzyl-1-(2-fluorobenzyl)-2-oxo-1,4,8-triazaspiro[4,5]decan-8-carboxylic acid cyclohexylamide] |  | 73 |  | 43% |
| CSCCC1NC2(CCN(C(=O)NCCc3ccccc3)CC2)N(Cc2ccc(F)cc2)C1=O (centres unmarked) [Example 239, 1-(4-Fluorobenzyl)-3-(2-methylsulfanylethyl)-2-oxo-1,4,8-triazaspiro[4,5]decan-8-carboxylic acid phenethylamide] |  | 69 |  | 36% |
| CSCCC1NC2(CCN(C(=O)Nc3cccc(F)c3)CC2)N(Cc2ccc3ccccc3c2)C1=O (centres unmarked) [Example 240, 3-(2-Methylsulfanylethyl)-1-naphthalin-2-ylmethyl-2-oxo-1,4,8-triazaspiro[4,5]decan-8-carboxylic acid (3-fluorobenzol)amide] |  | 78 | 63% |  |
| COC(=O)c1ccc(CN2C(=O)C(C(C)C)NC23CCN(C(=O)Nc2ccc(Cl)c(C(F)(F)F)c2)CC3)cc1 (centres unmarked) [Example 241, Methyl 4-[8-(4-chloro-3-trifluoromethylbenzolcarbamoyl)-3-isopropyl-2-oxo-1,4,8-triazaspiro[4,5]dec-1-ylmethyl]-benzoate] |  | 78 | 31% |  |
| COc1ccc(OC)c(NC(=O)N2CCC3(CC2)NC(CCSC)C(=O)N3Cc2cccc(C#N)c2)c1 (centres unmarked) [Example 242, 1-(3-Cyanobenzyl)-3-(2-methylsulfanylethyl)-2-oxo-1,4,8-triazaspiro[4,5]decan-8-carboxylic acid (2,5-dimethoxy-benzol)amide] |  | 46 | 30% |  |
| CCOc1ccc(NC(=O)N2CCC3(CC2)NC(CCSC)C(=O)N3Cc2ccc(F)cc2)cc1 (centres unmarked) [Example 243, 1-(4-Fluorobenzyl)-3-(2-methylsulfanylethyl)-2-oxo-1,4,8-triazaspiro[4,5]decan-8-carboxylic acid (4-ethoxy-benzol)amide] |  | 48 | 40% |  |
| Ethyl[3-b-8-(3-fluorobenzolcarbamoyl)-2-oxo-1,4,8-triazaspiro[4,5]dec-1-yl]-acetate [Example 245] |  | 31 | 51% |  |

Source: US7560468B2, “Substituted 1,4,8-triazaspiro[4,5]decan-2-one compounds” (Gruenenthal GmbH, priority 2004, dated 2009)
